We go through 2 compounds from patent publication US20210052705A1, “METHOD OF DRUG […] FOR PTH, PTHrP AND RELATED PEPTIDES” (Radius Health, Inc., priority 2011, published 2021).

Each structure is given as a SMILES string. Where two headings read alike, the source gives them in different places.

The nature of one data set: clinical. To be noted: female, human, in vivo; for AUC(0-inf): AUC0-inf; for Tmax: Tmax (Median); for half-life: t1/2.
Details of data set [1]: AUCR: unit not given beside the values. To be noted: in vivo.
Data set [2] can be described thus: in vivo. To be noted: rat, sc, 20 ug/kg.
Procedure: Certain drug coated microarrays were tested in vivo in a preclinical model using Sprague Dawley rats. […] Male Sprague Dawley rats with jugular vein catheters were purchased from Charles River Laboratories. Once received, they were acclimated for at least 24 hours prior to dosing.
Typically, one hour prior to dosing microneedle arrays were removed from refrigeration (approximately 4° C.) and allowed to equilibrate to room temperature.
The standard procedure for skin preparation and microneedle array application is as follows.
One day prior to dosing, an area just above the hind legs on the dorsal surface of the rat was shaved using electric clippers. Nair® hair removal lotion (Church & Dwight Co.) was then applied to the area for 5 to 8 minutes to remove remaining fur stubble. The Nair® lotion was then thoroughly removed using a damp cloth. The next day a microneedle array was applied using a spring-loaded applicator. The microneedle array was left in contact with skin for five minutes, before being removed. During array application and contact time the rats were manually restrained.
Blood was collected at three time points from each animal out of a possible total of five time destinations (5 minutes, 15 minutes, 30 minutes, 45 minutes, 90 minutes) from each rat on a staggered schedule so that all time points would be represented with extra sampling at 15 minutes without overdrawing from any animal. Approximately 1 mL of blood was collected via the catheter from the jugular vein using a syringe and needle from rats for their first two blood draws. For the terminal blood collection, animals were euthanized via CO2 chamber and approximately 1 mL of blood was collected via cardiac puncture. The blood was immediately transferred to a serum separator tube that contained 25 μL of a 2.5 mg/ml aprotinin (Sigma) solution.
Blood was collected from each rat 5, 10, 15, 30 and 45 minutes post dose. Approximately 600 μL of blood was collected via the catheter from the jugular vein using a syringe and needle from rats for their first four blood draws. For the terminal blood collection, animals were euthanized via CO2 chamber and approximately 600 μL of blood was collected via cardiac puncture. The blood was immediately transferred to a serum separator tube that contained 12 μL of a 2.5 mg/ml aprotinin (Sigma) solution.
Blood was collected three or four times from each rat at the time points depicted in the tables below. Approximately 1 mL of blood was collected via the catheter from the jugular vein using a syringe and needle from rats for any non-terminal time points. For the terminal blood collection, animals were euthanized via CO2 chamber and approximately 1 mL of blood was collected via cardiac puncture. The blood was immediately transferred to a serum separator tube that contained 20 μL of a 2.5 mg/ml aprotinin (Sigma) solution.
Blood was collected from each rat 5, 15, 30, 45, 90 and 120 minutes post dose. Approximately 500 μL of blood was collected via the catheter from the jugular vein using a syringe and needle from rats for their first five blood draws. For the terminal blood collection, animals were euthanized via CO2 chamber and approximately 500 μL of blood was collected via cardiac puncture.
Data set [3] in a line: in vivo. To be noted: female, Sprague Dawley, rat, sc.
Procedure: On day 14 of dosing approximately 3 mL of blood was collected 15 minutes post dose. The blood was immediately transferred to a serum separator tube that contained 60 μL of a 2.5 mg/mL aprotinin (Sigma) solution. The blood was kept at room temperature for approximately 45 minutes to allow it to clot. Once clotted, the blood was centrifuged at 2500 rpm for 10 minutes. Serum was stored at −80° C.

Procedure for clinical: This study was conducted at 1 study site and consisted of 3 study periods. […] Application sites were to be either periumbilical or upper thigh regions each with 2 wear times of 10 seconds and 15 minutes. […] Application sites were to be either periumbilical with 10 second and 15 minute wear times or upper thigh regions with a 15 minute wear time. […] Application times were to included 30 seconds, 1, 5, 15, 60 minutes, and 24 hours. New subjects were to be enrolled in each study period.

As to `CC[C@H](C)[C@H](NC(=O)[C@H](CO)NC(=O)[C@H](CCCCN)NC(=O)CNC(=O)[C@H](CCCCN)NC(=O)[C@H](CC(=O)O)NC(=O)[C@H](Cc1cnc[nH]1)NC(=O)[C@H](CC(C)C)NC(=O)[C@H](CC(C)C)NC(=O)[C@H](CCC(N)=O)NC(=O)[C@H](Cc1cnc[nH]1)NC(=O)[C@H](CCC(=O)O)NC(=O)[C@H](CO)NC(=O)[C@@H](NC(=O)[C@H](C)N)C(C)C)C(=O)N[C@@H](CCC(N)=O)C(=O)N[C@@H](CC(=O)O)C(=O)N[C@@H](CC(C)C)C(=O)N[C@@H](CCCNC(=N)N)C(=O)N[C@@H](CCCNC(=N)N)C(=O)N[C@@H](CCCNC(=N)N)C(=O)N[C@@H](CCC(=O)O)C(=O)N[C@@H](CC(C)C)C(=O)N[C@@H](CC(C)C)C(=O)N[C@@H](CCC(=O)O)C(=O)N[C@@H](CCCCN)C(=O)N[C@@H](CC(C)C)C(=O)N[C@@H](CC(C)C)C(=O)NC(C)(C)C(=O)N[C@@H](CCCCN)C(=O)N[C@@H](CC(C)C)C(=O)N[C@@H](Cc1cnc[nH]1)C(=O)N[C@H](C(=O)N[C@@H](C)C(N)=O)[C@@H](C)O`, in “clinical” (100 ug), the AUC(0-inf) – broadly, the area under the concentration-time curve extrapolated to infinity – turned out to be 0.177 ± 0.0869 ng·h/mL; the time to peak (Tmax) (usually the time at which the peak concentration occurs) came out at 12.1 min; the Vd/F (as a rule, the volume of distribution divided by bioavailability) is 366 ± 128 L; the half-life (commonly the time needed for the level to fall by half in the phase considered) is 24.1 ± 7.56 min. Also, in “clinical” (100 ug, AUC0-t), the exposure AUC(0-t) (usually the area under the concentration-time curve up to a stated or last time point) came to 0.154 ± 0.0693 ng·h/mL. Besides, the area under the curve (AUC) – broadly, the area under the concentration-time curve, a measure of exposure – in “clinical” (100 ug, AUC0-tau) stood at 0.177 ± 0.0868 ng·h/mL. Moreover, in the data set “clinical” (100 ug, Cmax), the concentration peaked (Cmax) at 0.317 ± 0.0806 ng/mL. Moreover, in “clinical” (150 ug), the AUC(0-inf) turned out to be 0.269 ± 0.265 ng·h/mL, the time of peak concentration (Tmax) was 9.84 min and the half-life is 34.1 ± 28.3 min. In the data set “clinical”, the time of peak concentration (Tmax) turned out to be 7.8 min, the Vd/F stood at 491 ± 208 L and the half-life is 28 ± 25 min. In the data set “clinical” (sc), the CL/F (in general, clearance divided by bioavailability, as obtained after extravascular dosing) is 2340 mL/min; the time of peak concentration (Tmax) amounted to 25.3 min; the Vd/F is 197 ± 86.2 L; the half-life is 58.2 ± 11.1 min. The compound also gave a CL/F in “clinical” (topical or ocular, 100 ug) of 6710 mL/min. Also, in data set [1] (100 ug), the AUC0-inf/dose turned out to be 1.77 ± 0.869 pg·h/mL/µg, the AUC0-tau/dose came to 1.77 ± 0.868 pg·h/mL/µg, the AUCR amounted to 0.898 ± 0.0169 and the CL/F is 666.2 ± 284.4 L/h. Also, in data set [1] (sc), the AUC0-inf/dose came to 7.92 ± 2.83 pg·h/mL/µg; the AUC0-tau/dose came out at 7.91 ± 2.83 pg·h/mL/µg; the “Mean Dose Normalized AUC0-inf, SC Dose” value is 7.92.

Regarding `CC[C@H](C)[C@H](NC(=O)[C@H](CO)NC(=O)[C@H](CCCCN)NC(=O)CNC(=O)[C@H](CCCCN)NC(=O)[C@H](CC(=O)O)NC(=O)[C@H](Cc1cnc[nH]1)NC(=O)[C@H](CC(C)C)NC(=O)[C@H](CC(C)C)NC(=O)[C@H](CCC(N)=O)NC(=O)[C@H](Cc1cnc[nH]1)NC(=O)[C@H](CCC(=O)O)NC(=O)[C@H](CO)NC(=O)[C@@H](NC(=O)[C@H](C)N)C(C)C)C(=O)N[C@@H](CCC(N)=O)C(=O)N[C@@H](CC(=O)O)C(=O)N[C@@H](CC(C)C)C(=O)N[C@@H](CCCNC(=N)N)C(=O)N[C@@H](CCCNC(=N)N)C(=O)N[C@@H](CCCNC(=N)N)C(=O)N[C@@H](CCC(=O)O)C(=O)N[C@@H](CC(C)C)C(=O)N[C@@H](CC(C)C)C(=O)N[C@@H](CCC(=O)O)C(=O)N[C@@H](CCCCN)C(=O)N[C@@H](CC(C)C)C(=O)N[C@@H](CC(C)C)C(=O)NC(C)(C)C(=O)N[C@@H](CCCCN)C(=O)N[C@@H](CC(C)C)C(=O)N[C@@H](Cc1cnc[nH]1)C(=O)N[C@H](C(=O)N[C@@H](C)C(N)=O)[C@@H](C)O` [reference SC], the concentration in “in vivo [2]” (Cmax) peaked (Cmax) at 8.9 ng/mL. Besides, the time of peak concentration (Tmax) in “in vivo [2]” (Tmax) was 10 min. In the data set “in vivo [2]” (t1/2), this compound yielded a half-life of 31 min. Also, in “in vivo [3]”, the level at 0.25 h worked out at 0.0108 ± 0.0036 ng/mL.
